Columns and labels:
Assay type in all cases: in vivo
Digitaria ciliaris = assay: Test Example 2: seeds on filter paper moistened with chemical solution, herbicidal effect visually evaluated; conditions: Compound (I-3) alone, 0.2 ppm, 6 days after the treatment
Zea mays = assay: Test Example 6: foliar spraying treatment, herbicidal effect from above ground weight (useful plant); conditions: Compound (I-3) alone
Protocol: (§1) POA allylphenyl ether (4.1 parts by weight), POE-POP glycol (1 part by weight), POE sorbitan laurate (0.8 parts by weight), glycerin (2.6 parts by weight), dimethylformamide (65.9 parts by weight), N-methylpyrrolidone (5.1 parts by weight), cyclohexanone (15.4 parts by weight), and aromatic hydrocarbons (5.1 parts by weight) were mixed and dissolved to prepare an emulsion. The active ingredient (4 mg) of the composition of the present invention was dissolved in this emulsion (100 μL) to prepare a test emulsion. It should be noted that POA means “polyoxyalkylene”, POE means “polyoxyethylene”, and POP means “polyoxypropylene”.
(§2) A test emulsion was prepared in the same manner as in Test Example 4.
(§3) A 300 cm^2 pot was filled with soil, and seeds of Zea mays and Ipomoea hederacea were sown into the surface layer, and then grown in a greenhouse after being covered lightly with soil. When each plant grew to a plant height of 7 to 9 cm, the above test emulsion was diluted so that the amount of the active ingredient became a predetermined amount, and sprayed on the foliage with a small sprayer at a spray water volume of 250 L per hectare.
(§4) Test Examples 6-1 and 6-3 were evaluated in the same manner as in Test Example 4.
(§5) The expected values of the herbicidal effects in Test Example 6-2 were calculated using the following Colby's formula (Colby, S. R., Calculating synergistic and antagonistic responses of herbicide combinations, Weeds, 15, pp. 20-22 (1967)).
(§6) X indicates an herbicidal effect (%) by applying the compound (1) alone, Y and Z each indicate an herbicidal effect (%) by applying one of the two types of the compounds (II) alone, and E indicates an expected value (%) of the herbicidal effect by applying combinations of the compound (I) and two types of the compounds (II).
(§7) When the actual measured value (%) of the herbicidal effect by the combined application of the compound (I) and two types of the compounds (11) is greater than the expected value E, it can be regarded that the combined application of the compound (1) and two types of the compounds (II) has a synergistic effect.
The following plants were used as useful plants [scientific names]. • Corn for animal feed [Zea mays]

Brachiaria platyphylla = assay: Test Example 4: foliar spraying treatment, herbicidal effect from above ground weight; conditions: Compound (I-3) alone, 63 gai/ha, 3 weeks after spraying
Protocol: as §1
as §3, with “mays, Setaria faberi, Sorghum halepense, Brachiaria platyphylla, Amaranthus palmeri, Senna obtusifolia” for “mays”, “11” for “9”, “cm, it was used for” for “cm,”, “test. The” for “above”
(§8) For the evaluation of the herbicidal effects, the above ground weights of weeds in the untreated and treated areas were measured for each weed 3 weeks after spraying treatment, and the herbicidal effect (%) was calculated by the following calculation formula.
(§9) In addition, the expected values of the herbicidal effects were calculated from the herbicidal effects in a case where the compound (I) alone was applied and the herbicidal effects in a case where the compound (II) alone was applied by using the Colby's formula (Colby, S. R., Calculating synergistic and antagonistic responses of herbicide combinations, Weeds, 15, pp. 20-22 (1967)).
(§10) M indicates an herbicidal effect (%) in the application of the compound (1) alone, N indicates an herbicidal effect (%) in the application of the compound (II) alone, and E indicates an expected value (%) of the herbicidal effect in the combined application of the compound (I) and the compound (II). When the actual measured value (%) of the herbicidal effect in the combined application of the compound (I) and the compound (II) is greater than the expected value E, it can be regarded that the combined application of the compound (1) and the compound (II) has a synergistic effect.
(§11) Herbicidal effect (%)=[(above ground weight of weeds in untreated area)−(above ground weight of weeds in treated area)/(above ground weight of weeds in untreated area)]×100
(§12) The following grass species were used as grass species to be controlled [scientific names]. • Giant foxtail [Setaria faberi] • Johnson grass [Sorghum halepense] • Broadleaf signalgrass [Brachiaria platyphylla] • Palmer amaranth [Amaranthus palmeri] • Sicklepod [Senna obtusifolia] • Morning glory [Ipomoea hederacea]

Setaria faberi = assay: as above; conditions: Compound (I-3) alone, 63 gai/ha, 3 weeks after spraying
Protocol: as §1
as §3, with “mays, Setaria faberi, Sorghum halepense, Brachiaria platyphylla, Amaranthus palmeri, Senna obtusifolia” for “mays”, “11” for “9”, “cm, it was used for” for “cm,”, “test. The” for “above”
as §8, §9, §10, §11, §12

Senna obtusifolia = assay: as above; conditions: Compound (I-3) alone, 63 gai/ha, 3 weeks after spraying
Protocol: as §1
as §3, with “mays, Setaria faberi, Sorghum halepense, Brachiaria platyphylla, Amaranthus palmeri, Senna obtusifolia” for “mays”, “11” for “9”, “cm, it was used for” for “cm,”, “test. The” for “above”
as §8, §9, §10, §11, §12

Amaranthus palmeri = assay: as above; conditions: Compound (I-3) alone, 63 gai/ha, 3 weeks after spraying
Protocol: as §1
as §3, with “mays, Setaria faberi, Sorghum halepense, Brachiaria platyphylla, Amaranthus palmeri, Senna obtusifolia” for “mays”, “11” for “9”, “cm, it was used for” for “cm,”, “test. The” for “above”
as §8, §9, §10, §11, §12

Ipomoea hederacea [1] = assay: as above; conditions: Compound (I-3) alone, 63 gai/ha, 3 weeks after spraying
Protocol: as §1
as §3, with “mays, Setaria faberi, Sorghum halepense, Brachiaria platyphylla, Amaranthus palmeri, Senna obtusifolia” for “mays”, “11” for “9”, “cm, it was used for” for “cm,”, “test. The” for “above”
as §8, §9, §10, §11, §12

Sorghum halepense = assay: as above; conditions: Compound (I-3) alone, 63 gai/ha, 3 weeks after spraying
Protocol: as §1
as §3, with “mays, Setaria faberi, Sorghum halepense, Brachiaria platyphylla, Amaranthus palmeri, Senna obtusifolia” for “mays”, “11” for “9”, “cm, it was used for” for “cm,”, “test. The” for “above”
as §8, §9, §10, §11, §12

Ipomoea hederacea [2] = assay: Test Example 6: foliar spraying treatment, herbicidal effect from above ground weight; conditions: Compound (I-3) alone
Protocol: as §1, §2, §3, §4, §5, §6, §7
The following grass species were used as grass species to be controlled [scientific names]. • Morning glory [Ipomoea hederacea]

With `COC12OC1(c1ccc(C(F)(F)F)c3c1CCCS3(=O)=O)C=NN(C)C2=O` (centres unmarked) [Compound (I-3), 1-methoxy-3-methyl-6-(1,1-dioxido-8-(trifluoromethyl)thiochroman-5-yl)-7-oxa-3,4-diazabicyclo[4.1.0]hept-4-en-2-one] the Herbicidal effect (Digitaria ciliaris) was 75%, the “Actual measured value of herbicidal effect” value (from here on “Actual measured value”) (Zea mays; 94 gai/ha) was 0% and the “Actual measured value” value (Zea mays; 125 gai/ha) was 0%. The “Actual measured value” value (Brachiaria platyphylla) was 80%, the “Actual measured value” value (Setaria faberi) was 80% and the “Actual measured value” value (Senna obtusifolia) was 60%. The “Actual measured value” value (Amaranthus palmeri) was 100%, the “Actual measured value” value (Ipomoea hederacea [1]) was 70% and the “Actual measured value” value (Sorghum halepense) was 80%. The “Actual measured value” value (Ipomoea hederacea [2]; 94 gai/ha) was 80% and the “Actual measured value” value (Ipomoea hederacea [2]; 125 gai/ha) was 60%.

Reference: patent US20240130368A1, “HERBICIDAL COMPOSITION” (Nippon Soda Co., Ltd., priority 2021, published 2024)
